system: 8×TBD luciferase reporter (YAP) in HEK293T cells; experiment: YAP Reporter Assay (8×TBD firefly luciferase reporter); assay type: cell-based; conditions: Homo sapiens, HEK-293T; HEK293T cells stably transfected with 8×TBD luciferase reporter and pRLTK; 24-hr incubation; firefly luciferase activity; read-out: Firefly Luciferase IC50
Procedure: HEK293T cells stably transfected with 8×TBD luciferase reporter and pRLTK in 384-well plates were treated with the test compounds, starting from 3 μM (final concentration in assay plate), 1:3 dilution, and 10 points in quadruplicates. Post 24-hr incubation with compounds at 37° C. and 5% CO2, cells were lysed and 8×TBD-driven firefly luciferase and control TK-driven renilla luciferase activities were measured using Promega Dual-Luciferase Reporter Assay System.
Reagents: The reagents used for this study are: DMEM: Invitrogen #11960077, Dual-Glo Luciferase Assay System: Promega-E2980, Puromycin Dihydrochloride: Invitrogen-A1113803, 384-well plate: PerkinElmer-6007480, L-GLUTAMINE: Invitrogen-25030164, Hygromycin B: Invitrogen-10687010, and Penicillin-Streptomycin: Merk-TMS-AB2-C
Media: The media used for this assay were: Culture Medium: DMEM+1 ug/mL puromycin+200 ug/mL hygromycin (with 10% FBS+1 mM L-glutamine); and Assay Medium: DMEM (with 10% FBS+1 mM L-glutamine+1×P/S).
Cell Plating: The appropriate media was warmed at 37° C. by water bath: Culture Medium, Assay Medium, 1*D-PBS, 0.05% trypsin-EDTA. The cells were trypsinized after removing all media, then washed with 1*sterile D-PBS and then with 2 ml 0.05% trypsin-EDTA. The cells were then incubated at RT for one minute. Then 10 ml/75 cm2 flask Assay Medium was added to each flask. Using a 10 ml pipette, the cells were then gently resuspended in the media, until the clumps completely disappeared. The cells were then transferred into 50 ml centrifuge tubes and were centrifuged at 800 rpm for 5 mins. The medium was removed and the cells were resuspended with Assay Medium. An aliquot of cells was used to count the cell density (cells/ml). The cell suspension was then diluted with Assay Medium to a concentration of 6×10^4 cells/ml. 50 ul cells suspension was then plated to 384-well plate (PerkinElmer-6007480), 3×10^3 cells/well and the cells were incubated in an incubator at 37° C., 5% CO2.
Compound Treatment: In the afternoon (incubation of the plate with 3-4 hrs), the test compounds were added by Echo, starting from 3 uM (final concentration in the assay plate), 1:3 dilution, 10 points, quadruplicates. The plate was placed at 37° C., 5% CO2 incubator for 24 hrs.
Detection: The Dual-Glo Luciferase Reagent was prepared by transferring the contents of one bottle of Dual-Glo Luciferase Buffer to one bottle of Dual-Glo Luciferase Substrate to create the Dual-Glo Luciferase Reagent. Mixing was performed by inversion until the substrate was thoroughly dissolved. After mixing, the reagent was aliquoted into 15 ml tubes. In the afternoon (24 hrs post compound treatment), the DMEM+medium in the 384 well plates were aspirated by Microplate Washer.
Measuring firefly luciferase activity: 20 ul Dual-Glo Luciferase Reagent was added to the 384-well plates. The plates were protected from light to prevent interference with the assay. The plates were shaken for 1 min followed centrifuging plates at 1000 rpm for 30 seconds. After waiting at least 10 minutes, the firefly luminescence was measured by Envision.
Measuring renilla luciferase activity: 20 ul Stop-Glo Reagent was added to the 384-well plates. The plates were shaken for 1 min and then centrifuged at 1000 rpm for 30 seconds. After waiting at least 10 minutes, the renilla luminescence was measured by Envision.
Compound IC50 and maximum inhibition on the firefly luciferase and renilla luciferase activities were reported separately.

SMILES	IC50 [nM]
CN(C#N)CCCNC(=O)c1ccc2c(Oc3ccc(C(F)(F)F)cc3)cccc2c1 [Compound 35, N-(3-(N-methylcyanamido)propyl)-5-(4-(trifluoromethyl)phenoxy)-2-naphthamide]	< 100
O=C(NC1(c2ccccc2)CC1)c1ccc2c(Oc3ccc(C(F)(F)F)cc3)cccc2c1 [Compound 36, N-(1-phenylcyclopropyl)-5-[4-(trifluoromethyl)phenoxy]naphthalene-2-carboxamide]	< 100
O=C(NC1(c2ccccc2)COC1)c1ccc2c(Oc3ccc(C(F)(F)F)cc3)cccc2c1 [Compound 37, N-(3-phenyloxetan-3-yl)-5-(4-(trifluoromethyl)phenoxy)-2-naphthamide]	< 100
C[C@@H](NC(=O)c1ccc2c(Oc3ccc(C(F)(F)F)cc3)cccc2c1)C1CC1 [Compound 38, (R)—N-(1-cyclopropylethyl)-5-(4-(trifluoromethyl)phenoxy)-2-naphthamide]	< 100
C[C@H](NC(=O)c1ccc2c(Oc3ccc(C(F)(F)F)cc3)cccc2c1)C1CC1 [Compound 39, (S)—N-(1-cyclopropylethyl)-5-(4-(trifluoromethyl)phenoxy)-2-naphthamide]	< 100
C[C@@H](NC(=O)c1ccc2c(Oc3ccc(C(F)(F)F)cc3)cccc2c1)C1COC1 [Compound 40, (R)—N-(1-(oxetan-3-yl)ethyl)-5-(4-(trifluoromethyl)phenoxy)-2-naphthamide]	< 100
C[C@H](NC(=O)c1ccc2c(Oc3ccc(C(F)(F)F)cc3)cccc2c1)C1COC1 [Compound 41, (S)—N-(1-(oxetan-3-yl)ethyl)-5-(4-(trifluoromethyl)phenoxy)-2-naphthamide]	< 100
COc1cc(Oc2ccc(C(F)(F)F)cc2)c2ncc(C(=O)N[C@H](C)c3ccccn3)cc2c1 [Compound 42, (R)-6-methoxy-N-(1-(pyridin-2-yl)ethyl)-8-(4-(trifluoromethyl)phenoxy)quinoline-3-carboxamide]	100 to 1000
COc1cc(Oc2ccc(C(F)(F)F)cc2)c2ncc(C(=O)N[C@@H](C)c3ccccn3)cc2c1 [Compound 43, (S)-6-methoxy-N-(1-(pyridin-2-yl)ethyl)-8-(4-(trifluoromethyl)phenoxy)quinoline-3-carboxamide]	< 100
COC[C@@H](C)NC(=O)c1cnc2c(Oc3ccc(C(F)(F)F)cc3)cc(OC)cc2c1 [Compound 44, (R)-6-methoxy-N-(1-methoxypropan-2-yl)-8-(4-(trifluoromethyl)phenoxy)quinoline-3-carboxamide]	< 100
COC[C@H](C)NC(=O)c1cnc2c(Oc3ccc(C(F)(F)F)cc3)cc(OC)cc2c1 [Compound 45, (S)-6-methoxy-N-(1-methoxypropan-2-yl)-8-(4-(trifluoromethyl)phenoxy)quinoline-3-carboxamide]	< 100
C[C@@H](NC(=O)c1ccc2c(Oc3ccc(C(F)(F)F)cc3)cccc2c1)c1cnccn1 [Compound 46, (R)—N-(1-(pyrazin-2-yl)ethyl)-5-(4-(trifluoromethyl)phenoxy)-2-naphthamide]	< 100
C[C@H](NC(=O)c1ccc2c(Oc3ccc(C(F)(F)F)cc3)cccc2c1)c1cnccn1 [Compound 47, (S)—N-(1-(pyrazin-2-yl)ethyl)-5-(4-(trifluoromethyl)phenoxy)-2-naphthamide]	100 to 1000
C[C@@H](NC(=O)c1ccc2c(Oc3ccc(C(F)(F)F)cc3)cccc2c1)c1c[nH]cn1 [Compound 48, (R)—N-(1-(1H-imidazol-4-yl)ethyl)-5-(4-(trifluoromethyl)phenoxy)-2-naphthamide]	< 100
C[C@H](NC(=O)c1ccc2c(Oc3ccc(C(F)(F)F)cc3)cccc2c1)c1c[nH]cn1 [Compound 49, (S)—N-(1-(1H-imidazol-4-yl)ethyl)-5-(4-(trifluoromethyl)phenoxy)-2-naphthamide]	< 100
C[C@H](NC(=O)c1ccc2c(Oc3ccc(C(F)(F)F)cc3)cccc2c1)C(N)=O [Compound 50, (S)—N-(1-amino-1-oxopropan-2-yl)-5-(4-(trifluoromethyl)phenoxy)-2-naphthamide]	< 100
C[C@@H](NC(=O)c1ccc2c(Oc3ccc(C(F)(F)F)cc3)cccc2c1)C(N)=O [Compound 51, (R)—N-(1-amino-1-oxopropan-2-yl)-5-(4-(trifluoromethyl)phenoxy)-2-naphthamide]	< 100
C[C@H](NC(=O)c1ccc2c(Oc3ccc(C(F)(F)F)cc3)cccc2c1)c1nn[nH]n1 [Compound 52, (S)—N-(1-(2H-tetrazol-5-yl)ethyl)-5-(4-(trifluoromethyl)phenoxy)-2-naphthamide]	1000 to 3000
O=C(NC1(c2ccccn2)CC1)c1ccc2c(Oc3ccc(C(F)(F)F)cc3)cccc2c1 [Compound 54, N-(1-(pyridin-2-yl)cyclopropyl)-5-(4-(trifluoromethyl)phenoxy)-2-naphthamide]	< 100
C[C@H](NC(=O)c1ccc2c(Oc3ccc(C(F)(F)F)cc3)cccc2c1)c1nnnn1C [Compound 55, (S)—N-(1-(1-methyl-1H-tetrazol-5-yl)ethyl)-5-(4-(trifluoromethyl)phenoxy)-2-naphthamide]	100 to 1000
C[C@@H](NC(=O)c1ccc2c(Oc3ccc(C(F)(F)F)cc3)cccc2c1)c1nnnn1C [Compound 56, (R)—N-(1-(1-methyl-1H-tetrazol-5-yl)ethyl)-5-(4-(trifluoromethyl)phenoxy)-2-naphthamide]	100 to 1000
C[C@@H](NC(=O)c1ccc2c(Oc3ccc(C(F)(F)F)cc3)cccc2c1)c1nnn(C)n1 [Compound 57, (R)—N-(1-(2-methyl-2H-tetrazol-5-yl)ethyl)-5-(4-(trifluoromethyl)phenoxy)-2-naphthamide]	100 to 1000
C[C@H](NC(=O)c1ccc2c(Oc3ccc(C(F)(F)F)cc3)cccc2c1)c1nnn(C)n1 [Compound 58, (S)—N-(1-(2-methyl-2H-tetrazol-5-yl)ethyl)-5-(4-(trifluoromethyl)phenoxy)-2-naphthamide]	< 100
C[C@@H](NC(=O)c1ccc2c(Oc3ccc(C(F)(F)F)cc3)cccc2c1)C1CCC1 [Compound 59, (R)—N-(1-cyclobutylethyl)-5-(4-(trifluoromethyl)phenoxy)-2-naphthamide]	< 100
C[C@H](NC(=O)c1ccc2c(Oc3ccc(C(F)(F)F)cc3)cccc2c1)C1CCC1 [Compound 60, (S)—N-(1-cyclobutylethyl)-5-(4-(trifluoromethyl)phenoxy)-2-naphthamide]	< 100
C#C[C@@H](C)NC(=O)c1ccc2c(Oc3ccc(C(F)(F)F)cc3)cccc2c1 [Compound 61, (R)—N-(but-3-yn-2-yl)-5-(4-(trifluoromethyl)phenoxy)-2-naphthamide]	< 100
C#C[C@H](C)NC(=O)c1ccc2c(Oc3ccc(C(F)(F)F)cc3)cccc2c1 [Compound 62, (S)—N-(but-3-yn-2-yl)-5-(4-(trifluoromethyl)phenoxy)-2-naphthamide]	< 100
C[C@H](NC(=O)c1ccc2c(Oc3ccc(C(F)(F)F)cc3)cccc2c1)c1ncc[nH]1 [Compound 63, (S)—N-(1-(1H-imidazol-2-yl)ethyl)-5-(4-(trifluoromethyl)phenoxy)-2-naphthamide]	100 to 1000
C[C@@H](NC(=O)c1ccc2c(Oc3ccc(C(F)(F)F)cc3)cccc2c1)c1ncc[nH]1 [Compound 64, (R)—N-(1-(1H-imidazol-2-yl)ethyl)-5-(4-(trifluoromethyl)phenoxy)-2-naphthamide]	< 100
C[C@H](NC(=O)c1ccc2c(Oc3ccc(C(F)(F)F)cc3)cccc2c1)c1cccc(N)n1 [Compound 65, (S)—N-(1-(6-aminopyridin-2-yl)ethyl)-5-(4-(trifluoromethyl)phenoxy)-2-naphthamide]	100 to 1000
